The source of these data is patent publication US11173151B2, “Substituted triazole derivatives and uses thereof” (BAYER AKTIENGESELLSCHAFT, priority 2017, dated 2021).

Usually IC50 stands for the concentration that gives 50% inhibition.

One assay deals with T1, human V1a receptor (Homo sapiens, UniProt P37288).
T1 construct: expressed in transfected cells; host or cells: CHO K1 (ATCC), also stably transfected with a modified aequorin
Nature of the assay: Cellular in vitro assay for determining vasopressin receptor activity, V1a receptor cell line (CHO, aequorin luminescence). The format is cell-based. As to conditions: for IC50: CHO cell line transfected with human V1a receptor, [Arg]-vasopressin at EC50 concentration, read-out: IC50 hV1a; for ratio IC50 hV2/hV1a: selectivity ratio IC50 hV2 / IC50 hV1a. Put shortly:
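Antagonism is measured in stable CHO K1 transfectants coexpressing the Gαq-coupled receptor and a calcium-sensitive aequorin photoprotein. Agonist challenge uses [Arg]-vasopressin at EC50 after a 10-minute compound exposure; IC50 values come from the luminescence signal.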

In another assay the target is T2, human V2 receptor (Homo sapiens, UniProt P30518).
T2 construct: expressed in transfected cells; host or cells: CHO K1 (ATCC) expressing firefly luciferase under a CRE-responsive promoter
T2 sequence (P30518 whole entry): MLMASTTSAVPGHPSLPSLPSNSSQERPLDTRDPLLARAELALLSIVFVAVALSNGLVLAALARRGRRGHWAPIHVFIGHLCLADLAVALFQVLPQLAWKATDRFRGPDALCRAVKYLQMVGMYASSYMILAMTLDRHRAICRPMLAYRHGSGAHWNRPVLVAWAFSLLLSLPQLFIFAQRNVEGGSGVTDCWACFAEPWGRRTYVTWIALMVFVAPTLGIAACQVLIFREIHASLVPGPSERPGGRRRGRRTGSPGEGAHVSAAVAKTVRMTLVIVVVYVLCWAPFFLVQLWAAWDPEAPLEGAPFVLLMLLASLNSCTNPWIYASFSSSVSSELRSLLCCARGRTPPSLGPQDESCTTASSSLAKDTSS
In words: Cellular in vitro assay for determining vasopressin receptor activity, V2 receptor cell line (CHO, CRE-luciferase). The format is cell-based. As to conditions: CHO cell line transfected with human V2 receptor; [Arg8]-vasopressin at EC50 concentration; read-out: IC50 hV2.

T1 sequence (P37288 whole entry): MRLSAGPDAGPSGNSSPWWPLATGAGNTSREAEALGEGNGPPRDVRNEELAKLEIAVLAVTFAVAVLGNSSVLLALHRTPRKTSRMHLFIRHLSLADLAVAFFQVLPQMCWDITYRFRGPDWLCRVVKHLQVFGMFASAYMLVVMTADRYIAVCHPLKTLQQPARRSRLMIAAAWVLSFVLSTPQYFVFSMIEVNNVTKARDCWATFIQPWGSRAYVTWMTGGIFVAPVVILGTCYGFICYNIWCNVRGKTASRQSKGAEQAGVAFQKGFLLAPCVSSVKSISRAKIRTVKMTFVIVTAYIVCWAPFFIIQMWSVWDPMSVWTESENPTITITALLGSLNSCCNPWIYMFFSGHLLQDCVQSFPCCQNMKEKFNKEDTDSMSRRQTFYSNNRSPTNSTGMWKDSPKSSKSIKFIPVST

`O=C(NC1CC(F)(F)C1)c1ncccc1-n1cnc(Cn2nc(-c3ccc(Cl)cc3)n(C[C@@H](O)C(F)(F)F)c2=O)n1` [Example 465, 3-[3-({3-(4-Chlorophenyl)-5-oxo-4-[(2R)-3,3,3-trifluoro-2-hydroxypropyl]-4,5-dihydro-1H-1,2,4-triazol-1-yl}methyl)-1H-1,2,4-triazol-1-yl]-N-(3,3-difluorocyclobutyl)pyridine-2-carboxamide]: on human V1a receptor, the concentration for half-maximal inhibition (IC50) amounted to 170 nM and the “ratio IC50 hV2/hV1a” value is 21.2. Moreover, the IC50 on human V2 receptor was determined as 3600 nM.
On to `CC1CN(C(=O)c2ncccc2-n2cnc(Cn3nc(-c4ccc(Cl)cc4)n(C[C@@H](O)C(F)(F)F)c3=O)n2)CCO1` (stereo partly drawn) [Example 466, 5-(4-Chlorophenyl)-2-{[1-(2-{[2-methylmorpholin-4-yl]carbonyl}pyridin-3-yl)-1H-1,2,4-triazol-3-yl]methyl}-4-[(2R)-3,3,3-trifluoro-2-hydroxypropyl]-2,4-dihydro-3H-1,2,4-triazol-3-one], for which, on human V1a receptor, the half-inhibitory concentration (IC50) was 710 nM and the “ratio IC50 hV2/hV1a” value is given as 93.0. In addition, at human V2 receptor, the IC50 was 66000 nM.
Take `O=C(c1ncccc1-n1cnc(Cn2nc(-c3ccc(Cl)cc3)n(C[C@@H](O)C(F)(F)F)c2=O)n1)N1CCC(O)(C(F)(F)F)C1` (stereo partly drawn) [Example 468, 5-(4-Chlorophenyl)-2-{[1-(2-{[3-hydroxy-3-(trifluoromethyl)pyrrolidin-1-yl]carbonyl}pyridin-3-yl)-1H-1,2,4-triazol-3-yl]methyl}-4-[(2R)-3,3,3-trifluoro-2-hydroxypropyl]-2,4-dihydro-3H-1,2,4-triazol-3-one]: at human V1a receptor, the IC50 was 420 nM and the “ratio IC50 hV2/hV1a” value amounted to 76.2. In addition, the IC50 at human V2 receptor came to 32000 nM.
In the case of `O=C(c1ncccc1-n1cnc(Cn2nc(-c3ccc(Cl)cc3)n(C[C@@H](O)C(F)(F)F)c2=O)n1)N1CCOC(C(F)(F)F)C1` (stereo partly drawn) [Example 470, 5-(4-Chlorophenyl)-4-[(2R)-3,3,3-trifluoro-2-hydroxypropyl]-2-{[1-(2-{[2-(trifluoromethyl)morpholin-4-yl]carbonyl}pyridin-3-yl)-1H-1,2,4-triazol-3-yl]methyl}-2,4-dihydro-3H-1,2,4-triazol-3-one], the values for the IC50 on human V1a receptor and at human V2 receptor were 750 nM and 32000 nM, respectively. Moreover, the “ratio IC50 hV2/hV1a” value on human V1a receptor was 42.7.
For `O=C(c1ncccc1-n1cnc(Cn2nc(-c3ccc(Cl)cc3)n(C[C@@H](O)C(F)(F)F)c2=O)n1)N1CCCCC1` [Example 471, 5-(4-chlorophenyl)-2-({1-[2-(piperidin-1-ylcarbonyl)pyridin-3-yl]-1H-1,2,4-triazol-3-yl}methyl)-4-[(2R)-3,3,3-trifluoro-2-hydroxypropyl]-2,4-dihydro-3H-1,2,4-triazol-3-one], in that order: 150 nM, 20900 nM and 139.3.
With `O=C(c1ncccc1-n1cnc(Cn2nc(-c3ccc(Cl)cc3)n(C[C@@H](O)C(F)(F)F)c2=O)n1)N1CCOCC1` [Example 472, 5-(4-Chlorophenyl)-2-({1-[2-(morpholin-4-ylcarbonyl)pyridin-3-yl]-1H-1,2,4-triazol-3-yl}methyl)-4-[(2R)-3,3,3-trifluoro-2-hydroxypropyl]-2,4-dihydro-3H-1,2,4-triazol-3-one], at human V1a receptor, the IC50 was determined as 320 nM and the “ratio IC50 hV2/hV1a” value is 206.3. Moreover, on human V2 receptor, the IC50 worked out at 66000 nM.
For `O=C(NC1(C(F)(F)F)CC1)c1ncccc1-n1cnc(Cn2nc(-c3ccc(Cl)cc3)n(C[C@@H](O)C(F)(F)F)c2=O)n1` [Example 473, 3-[3-({3-(4-Chlorophenyl)-5-oxo-4-[(2R)-3,3,3-trifluoro-2-hydroxypropyl]-4,5-dihydro-1H-1,2,4-triazol-1-yl}methyl)-1H-1,2,4-triazol-1-yl]-N-[1-(trifluoromethyl)cyclopropyl]pyridine-2-carboxamide], in that order: 92 nM, 19.6 and 1800 nM.
Consider `CC1(C)COCCN1C(=O)c1ncccc1-n1cnc(Cn2nc(-c3ccc(Cl)cc3)n(C[C@H](O)C(F)(F)F)c2=O)n1` [Example 474, 5-(4-Chlorophenyl)-2-[(1-{2-[(3,3-dimethylmorpholin-4-yl)carbonyl]pyridin-3-yl}-1H-1,2,4-triazol-3-yl)methyl]-4-[(2S)-3,3,3-trifluoro-2-hydroxypropyl]-2,4-dihydro-3H-1,2,4-triazol-3-one], for which the concentration for half-maximal inhibition (IC50) at human V1a receptor came out at 24 nM; at human V2 receptor, 22500 nM. At human V1a receptor, the “ratio IC50 hV2/hV1a” value is reported as 937.5.
For `CC1(C)COCCN1C(=O)c1ncccc1-n1cnc(Cn2nc(-c3ccc(Cl)cc3)n(C[C@@H](O)C(F)(F)F)c2=O)n1` [Example 475, 5-(4-Chlorophenyl)-2-[(1-{2-[(3,3-dimethylmorpholin-4-yl)carbonyl]pyridin-3-yl}-1H-1,2,4-triazol-3-yl)methyl]-4-[(2R)-3,3,3-trifluoro-2-hydroxypropyl]-2,4-dihydro-3H-1,2,4-triazol-3-one], in that order: 90 nM, 66000 nM and 733.3.
Consider `O=C(c1ncccc1-n1cnc(Cn2nc(-c3ccc(Cl)cc3)n(C[C@@H](O)C(F)(F)F)c2=O)n1)N1CCC[C@H]1C(F)(F)F` [Example 477, 5-(4-Chlorophenyl)-4-[(2R)-3,3,3-trifluoro-2-hydroxypropyl]-2-{[1-(2-{[(2S)-2-(trifluoromethyl)pyrrolidin-1-yl]carbonyl}pyridin-3-yl)-1H-1,2,4-triazol-3-yl]methyl}-2,4-dihydro-3H-1,2,4-triazol-3-one], for which the IC50 on human V1a receptor was found to be 460 nM; at human V2 receptor, 11000 nM. In addition, the “ratio IC50 hV2/hV1a” value at human V1a receptor was 23.9.
Turning to `O=C(c1ncccc1-n1cnc(Cn2nc(-c3ccc(Cl)cc3)n(C[C@@H](O)C(F)(F)F)c2=O)n1)N1CCC[C@@H]1C(F)(F)F` [Example 478, 5-(4-Chlorophenyl)-4-[(2R)-3,3,3-trifluoro-2-hydroxypropyl]-2-{[1-(2-{[(2R)-2-(trifluoromethyl)pyrrolidin-1-yl]carbonyl}pyridin-3-yl)-1H-1,2,4-triazol-3-yl]methyl}-2,4-dihydro-3H-1,2,4-triazol-3-one], at human V1a receptor, the IC50 worked out at 290 nM and the “ratio IC50 hV2/hV1a” value amounted to 26.9. The IC50 on human V2 receptor came to 7800 nM.
The matching figures for `O=C(c1ncccc1-n1cnc(Cn2nc(-c3ccc(Cl)cc3)n(C[C@@H](O)C(F)(F)F)c2=O)n1)N1CCS(=O)(=O)CC1` [Example 479, 5-(4-Chlorophenyl)-2-[(1-{2-[(1,1-dioxidothiomorpholin-4-yl)carbonyl]pyridin-3-yl}-1H-1,2,4-triazol-3-yl)methyl]-4-[(2R)-3,3,3-trifluoro-2-hydroxypropyl]-2,4-dihydro-3H-1,2,4-triazol-3-one]: 1400 nM, 22.9 and 32000 nM.
Consider `CN(CC1CC1)C(=O)c1ncccc1-n1cnc(Cn2nc(-c3ccc(Cl)cc3)n(C[C@@H](O)C(F)(F)F)c2=O)n1` [Example 482, 3-[3-({3-(4-Chlorophenyl)-5-oxo-4-[(2R)-3,3,3-trifluoro-2-hydroxypropyl]-4,5-dihydro-1H-1,2,4-triazol-1-yl}methyl)-1H-1,2,4-triazol-1-yl]-N-(cyclopropylmethyl)-N-methylpyridine-2-carboxamide], for which, on human V1a receptor, the IC50 came to 99 nM and the “ratio IC50 hV2/hV1a” value was 323.2. Further, on human V2 receptor, the 50% inhibitory concentration (IC50) amounted to 32000 nM.
